This note sets out measurements from patent publication US9975885B2, “Broad-spectrum non-covalent coronavirus protease inhibitors” (priority 2016, dated 2018).

Usually IC50 stands for the concentration that gives 50% inhibition. A word on the inhibition: it is the percentage by which the read-out fell short of the control.

One assay addresses OC43-3CL^pro (Human coronavirus OC43 (HCoV-OC43), UniProt P0C6X6). The assay is classed as biochemical.
For assay [1], the system named is Ten CoV 3CL^pro's (FIPV-, PEDV-, NL63-, HKU1-, OC43-, SARS-, HKU4-, HKU5-, HKU9-, IBV-3CL^pro). The assay is classed as biochemical, coronaviruses (α-, β-, γ-CoV).
In another assay the target is HKU5-3CL^pro (Bat coronavirus HKU5 (BtCoV) (BtCoV/HKU5/2004), UniProt P0C6W4). Format: biochemical.
Sequence of HKU5-3CL^pro (P0C6W4 3339-3644 limits assumed): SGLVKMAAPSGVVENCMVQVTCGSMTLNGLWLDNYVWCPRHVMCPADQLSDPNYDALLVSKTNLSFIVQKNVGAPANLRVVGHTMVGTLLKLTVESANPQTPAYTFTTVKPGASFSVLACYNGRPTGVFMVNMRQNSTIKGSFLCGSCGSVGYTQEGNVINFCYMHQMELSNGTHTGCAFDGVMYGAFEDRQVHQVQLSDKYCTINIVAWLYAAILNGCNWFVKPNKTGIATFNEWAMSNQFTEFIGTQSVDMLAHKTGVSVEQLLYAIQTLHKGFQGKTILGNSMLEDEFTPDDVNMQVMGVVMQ
The target of a further assay is PEDV-3CL^pro (Porcine epidemic diarrhea virus (strain CV777) (PEDV), UniProt P0C6Y4). The assay can be described thus: biochemical. The conditions noted are these: for inhibition at 100 µM: read-out: inhibition of PEDV-3CL^pro.
Sequence of PEDV-3CL^pro (P0C6Y4 2998-3299 limits assumed): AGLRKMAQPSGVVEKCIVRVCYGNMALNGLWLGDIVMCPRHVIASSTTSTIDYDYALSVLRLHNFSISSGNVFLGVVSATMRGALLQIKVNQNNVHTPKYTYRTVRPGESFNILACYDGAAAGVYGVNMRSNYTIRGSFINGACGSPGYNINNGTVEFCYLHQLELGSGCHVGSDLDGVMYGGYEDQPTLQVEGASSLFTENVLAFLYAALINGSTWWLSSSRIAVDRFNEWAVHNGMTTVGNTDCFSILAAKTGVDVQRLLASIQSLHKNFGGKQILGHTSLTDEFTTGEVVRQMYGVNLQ
A further assay concerns the target NL63-3CL^pro (Human coronavirus NL63 (HCoV-NL63), UniProt P0C6X5). Briefly: biochemical.
The target in the next assay is HKU9-3CL^pro (Bat coronavirus HKU9 (BtCoV) (BtCoV/HKU9), UniProt P0C6W5). The assay is classed as biochemical.
Sequence of HKU9-3CL^pro (P0C6W5 3104-3409 limits assumed): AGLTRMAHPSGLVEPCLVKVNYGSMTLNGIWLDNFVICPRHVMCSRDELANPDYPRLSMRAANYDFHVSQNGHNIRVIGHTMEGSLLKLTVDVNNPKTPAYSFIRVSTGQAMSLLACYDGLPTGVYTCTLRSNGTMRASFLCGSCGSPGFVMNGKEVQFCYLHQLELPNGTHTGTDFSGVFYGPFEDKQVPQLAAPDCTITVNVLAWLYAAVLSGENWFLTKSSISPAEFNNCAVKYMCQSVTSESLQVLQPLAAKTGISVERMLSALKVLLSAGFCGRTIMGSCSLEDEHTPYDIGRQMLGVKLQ
For the next assay, the target named is HKU4-3CL^pro (Bat coronavirus HKU4 (BtCoV) (BtCoV/HKU4/2004), UniProt P0C6W3). The assay is classed as biochemical.
Sequence of HKU4-3CL^pro (P0C6W3 3292-3597 limits assumed): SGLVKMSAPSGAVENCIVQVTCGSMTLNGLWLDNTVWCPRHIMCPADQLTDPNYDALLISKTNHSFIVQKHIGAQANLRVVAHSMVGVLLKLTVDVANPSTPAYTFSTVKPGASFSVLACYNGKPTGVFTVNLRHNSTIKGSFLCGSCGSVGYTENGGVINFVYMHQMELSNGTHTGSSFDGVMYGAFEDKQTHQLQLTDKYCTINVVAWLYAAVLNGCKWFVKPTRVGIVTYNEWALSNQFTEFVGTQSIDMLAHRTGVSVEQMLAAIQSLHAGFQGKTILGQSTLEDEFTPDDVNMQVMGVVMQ
The target in a further assay is HKU1-3CL^pro (Human coronavirus HKU1 (isolate N1) (HCoV-HKU1), UniProt P0C6X2). Briefly: biochemical.
Sequence of HKU1-3CL^pro (P0C6X2 3335-3637 limits assumed): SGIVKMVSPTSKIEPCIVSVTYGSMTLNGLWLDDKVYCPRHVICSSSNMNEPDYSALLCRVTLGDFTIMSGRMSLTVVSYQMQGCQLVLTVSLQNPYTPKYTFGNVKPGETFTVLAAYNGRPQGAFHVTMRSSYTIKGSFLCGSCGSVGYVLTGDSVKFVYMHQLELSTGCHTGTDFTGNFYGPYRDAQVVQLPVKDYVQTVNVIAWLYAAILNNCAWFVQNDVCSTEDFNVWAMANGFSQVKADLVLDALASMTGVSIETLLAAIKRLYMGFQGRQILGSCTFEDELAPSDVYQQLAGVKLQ
For a further assay, the target named is FIPV-3CL^pro (Feline coronavirus (strain FIPV WSU-79/1146) (FCoV), UniProt Q98VG9). The assay can be described thus: biochemical.
Sequence of FIPV-3CL^pro (Q98VG9 2904-3205 limits assumed): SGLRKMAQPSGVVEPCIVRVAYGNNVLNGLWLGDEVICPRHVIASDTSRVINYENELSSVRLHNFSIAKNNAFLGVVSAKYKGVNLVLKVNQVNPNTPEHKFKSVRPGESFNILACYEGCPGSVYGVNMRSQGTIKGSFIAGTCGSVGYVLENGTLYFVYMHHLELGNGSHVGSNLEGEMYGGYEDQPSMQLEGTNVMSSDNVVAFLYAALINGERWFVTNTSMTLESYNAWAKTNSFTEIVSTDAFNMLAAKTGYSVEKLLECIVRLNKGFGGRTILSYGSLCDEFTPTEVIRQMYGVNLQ
In another assay the target is SARS-3CL^pro (Severe acute respiratory syndrome coronavirus (SARS-CoV), UniProt P0C6X7). The assay is classed as biochemical.
The target in another assay is IBV-3CL^pro (Avian infectious bronchitis virus (strain Beaudette) (IBV), UniProt P0C6Y1). Format: biochemical.
Sequence of IBV-3CL^pro (P0C6Y1 2780-3086 limits assumed): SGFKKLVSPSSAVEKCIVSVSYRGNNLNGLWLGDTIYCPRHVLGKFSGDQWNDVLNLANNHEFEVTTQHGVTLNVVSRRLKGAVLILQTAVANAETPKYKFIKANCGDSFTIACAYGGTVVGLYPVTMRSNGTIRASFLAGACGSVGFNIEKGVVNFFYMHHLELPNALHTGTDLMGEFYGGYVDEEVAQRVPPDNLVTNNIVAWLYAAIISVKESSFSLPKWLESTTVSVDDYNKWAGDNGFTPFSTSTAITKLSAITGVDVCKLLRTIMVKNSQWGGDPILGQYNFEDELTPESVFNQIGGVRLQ

Sequence of OC43-3CL^pro (P0C6X6 3247-3549 limits assumed): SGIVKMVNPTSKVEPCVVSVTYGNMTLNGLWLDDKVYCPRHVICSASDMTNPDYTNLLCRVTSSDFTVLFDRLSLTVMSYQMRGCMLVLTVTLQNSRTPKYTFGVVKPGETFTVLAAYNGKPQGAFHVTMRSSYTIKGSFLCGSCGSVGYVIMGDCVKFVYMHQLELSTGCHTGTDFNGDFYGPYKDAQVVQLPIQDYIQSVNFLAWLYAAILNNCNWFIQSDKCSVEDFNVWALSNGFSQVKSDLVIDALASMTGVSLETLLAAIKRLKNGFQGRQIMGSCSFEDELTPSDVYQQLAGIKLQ
Sequence of NL63-3CL^pro (P0C6X5 2940-3242 limits assumed): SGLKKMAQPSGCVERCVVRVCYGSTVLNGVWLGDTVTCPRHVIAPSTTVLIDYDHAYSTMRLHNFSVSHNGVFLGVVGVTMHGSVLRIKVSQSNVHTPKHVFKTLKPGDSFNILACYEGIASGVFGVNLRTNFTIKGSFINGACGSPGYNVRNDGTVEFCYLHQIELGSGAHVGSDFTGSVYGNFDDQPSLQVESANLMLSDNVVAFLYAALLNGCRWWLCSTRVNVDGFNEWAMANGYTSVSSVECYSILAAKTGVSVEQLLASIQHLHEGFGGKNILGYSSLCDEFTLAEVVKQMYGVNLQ

For `CC(C)(C)c1ccc(N(C(=O)c2c[nH]cn2)C(C(=O)NCc2ccccc2)c2cccnc2)cc1` (stereo not shown) [Compound 48, N-(2-(benzylamino)-2-oxo-1-(pyridin-3-yl)ethyl)-N-(4-(tert-butyl)phenyl)-1H-imidazole-4-carboxamide], the IC50 at OC43-3CL^pro was 46.5 ± 8 µM; against HKU5-3CL^pro it was 24.8 ± 2.9 µM; against PEDV-3CL^pro, 3.4 ± 0.4 µM; against NL63-3CL^pro it was 26.4 ± 4.2 µM; against HKU9-3CL^pro it was 40.4 ± 8.7 µM; at HKU4-3CL^pro, 26.1 ± 2.1 µM. Also, the IC50 against HKU1-3CL^pro is 8 ± 1.5 µM; against FIPV-3CL^pro it was 19 ± 1.7 µM; at SARS-3CL^pro, 6.6 ± 0.8 µM. Besides, in assay [1], the “Gini Coefficient” value turned out to be 0.17. Also, the “Score (performance metric score)” value in assay [1] is on record as 3.5.

On to `CC(C)C(=O)Nc1ccc(N(C(=O)Cn2nnc3ccccc32)C(C(=O)NCc2ccccc2)c2cccc(F)c2)cc1` (stereo not shown) [Compound 1P, reference compound], for which the IC50 came out at 6.9 ± 0.9 µM on OC43-3CL^pro, 1.2 ± 0.1 µM at HKU5-3CL^pro, 6.7 ± 0.7 µM on FIPV-3CL^pro and 1.6 ± 0.2 µM against SARS-3CL^pro. Further, the “Gini Coefficient” value in assay [1] is 0.31. For the same compound, the “Score (performance metric score)” value in assay [1] came out at 5.7. Further, the inhibition at 100 µM at PEDV-3CL^pro and at HKU1-3CL^pro (read-out: inhibition of HKU1-3CL^pro) was at most 50% throughout. In addition, the “inhibition of γ-CoV IBV-3CL^pro” value against IBV-3CL^pro was “no compound, including the parent compounds 1P, 2P, and 3P, was found to be capable of inhibiting”.

In the case of `CC(C)CNC(=O)C(c1cccnc1)N(C(=O)c1c[nH]cn1)c1ccc(C(C)(C)C)cc1` (stereo not shown) [Compound 43, N-(4-(tert-butyl)phenyl)-N-(2-(isobutylamino)-2-oxo-1-(pyridin-3-yl)ethyl)-1H-imidazole-4-carboxamide], the IC50 against OC43-3CL^pro was 12.4 ± 1 µM; on HKU5-3CL^pro, 5.8 ± 0.8 µM; on PEDV-3CL^pro, 1.6 ± 0.1 µM; against NL63-3CL^pro, 13.5 ± 0.8 µM; on HKU9-3CL^pro, 10.5 ± 1.1 µM; against HKU4-3CL^pro, 4.6 ± 0.3 µM. The concentration for half-maximal inhibition (IC50) was determined as 5.8 ± 0.8 µM against HKU1-3CL^pro, 16.2 ± 1.3 µM on FIPV-3CL^pro and 5.9 ± 0.5 µM at SARS-3CL^pro.

As to `CC(C)(C)NC(=O)C(c1ccsc1)N(C(=O)Cn1nnc2ccccc21)c1ccc(NC(=O)C2CC2)cc1` (stereo not shown) [Compound 2P, reference compound], the figures for the IC50 against OC43-3CL^pro, against HKU5-3CL^pro and against HKU4-3CL^pro were 24.4 ± 3.5 µM, 3.5 ± 0.5 µM and 3.8 ± 0.3 µM, respectively. Further, the “Gini Coefficient” value in assay [1] is recorded as 0.29. Further, the “Score (performance metric score)” value in assay [1] was 8.5. The inhibition at 100 µM at PEDV-3CL^pro, on NL63-3CL^pro (read-out: inhibition of NL63-3CL^pro) and on FIPV-3CL^pro (read-out: inhibition of FIPV-3CL^pro) was at most 50% each time. The “inhibition of γ-CoV IBV-3CL^pro” value on IBV-3CL^pro is “no compound, including the parent compounds 1P, 2P, and 3P, was found to be capable of inhibiting”.

On to `CC(C)(C)NC(=O)C(c1cccnc1)N(C(=O)c1c[nH]cn1)c1ccc(C(C)(C)C)cc1` (stereo not shown) [Compound 3P, reference compound], for which, in [1], the “Gini Coefficient” value amounted to 0.13 and the “Score (performance metric score)” value was determined as 2.7. Moreover, the “inhibition of γ-CoV IBV-3CL^pro” value against IBV-3CL^pro is “no compound, including the parent compounds 1P, 2P, and 3P, was found to be capable of inhibiting”.

Turning to `CC(C)Cc1ccc(N(C(=O)c2c[nH]cn2)C(C(=O)NC(C)(C)C)c2cccnc2)cc1` (stereo not shown) [Compound 38, N-(2-(tert-butylamino)-2-oxo-1-(pyridin-3-yl)ethyl)-N-(4-isobutylphenyl)-1H-imidazole-4-carboxamide], the IC50 on OC43-3CL^pro turned out to be 24.4 ± 3.1 µM; against HKU5-3CL^pro, 10.9 ± 0.9 µM; against PEDV-3CL^pro, 15.5 ± 1.8 µM; at HKU9-3CL^pro, 18 ± 3.3 µM; against HKU4-3CL^pro, 7.7 ± 0.7 µM; against HKU1-3CL^pro, 15.4 ± 1.5 µM. Besides, the IC50 was determined as 61.1 ± 13.9 µM against FIPV-3CL^pro and 7 ± 0.6 µM on SARS-3CL^pro. The “Gini Coefficient” value in assay [1] was 0.21. Besides, the “Score (performance metric score)” value in assay [1] was determined as 4.5. The “inhibition of NL63-3CL^pro” value against NL63-3CL^pro is “not tolerated”.

For the compound `CC(C)(C)CNC(=O)C(c1cccnc1)N(C(=O)c1c[nH]cn1)c1ccc(C(C)(C)C)cc1` (stereo not shown) [Compound 44, N-(4-(tert-butyl)phenyl)-N-(2-(neopentylamino)-2-oxo-1-(pyridin-3-yl)ethyl)-1H-imidazole-4-carboxamide], the IC50 against OC43-3CL^pro came out at 15.6 ± 1 µM; at HKU5-3CL^pro, 3.6 ± 0.3 µM; against PEDV-3CL^pro it was 1.4 ± 0.1 µM; against NL63-3CL^pro it was 8.2 ± 0.5 µM; against HKU9-3CL^pro, 9.1 ± 0.8 µM; on HKU4-3CL^pro, 4.2 ± 0.2 µM. For the same compound, the half-inhibitory concentration (IC50) came out at 9 ± 0.8 µM at HKU1-3CL^pro, 12.5 ± 0.8 µM at FIPV-3CL^pro and 6.3 ± 0.5 µM against SARS-3CL^pro.
